Several values for one entry are separate records, joined by “and”; a condition that tells them apart may be missing. Equal entries are not always repeated.
Key:
[1] = tested on: piglets that had a history of PRRSV; assay: Health condition of problem piglets (group P) with history of PRRSV treated with IAA (Example 9); type: in vivo, Belgian Land Race piglets; details: after ten days of treatment
Method: The piglets were weaned at four weeks and relocated, twelve piglets per pen. IGF-1 levels from three different groups were tested at the age of five weeks.
These are the pigs with the big problems. They are looking poor, have a low weight, bad color and some of them have Staphylococcus infections. It was the firm belief of the farmer and the veterinarian that these piglets would not reach the end of the fattening cycle. Blood samples were taken at random from five of the twelve piglets.
After seeing the low IGF-1 levels in group P, it was decided to give them the same treatment as in humans with CFS. The average weight of the piglets would have been around seven kilos at five weeks of age. They were treated with 125 mg of the composition comprising 5 mg IAA and 120 mg NaCl and WPC 70 for ten days. The product was fed in a trough, mixed in liquid feed. All the piglets ate from the same trough.

[2] = tested on: poor-growing piglets; assay: Weight gain and appearance of poor-growing piglets treated with IAA (Example 7); type: in vivo, piglets (Dutch Landrace)
From the text: The trial was done in a well-managed farm with 1000 sows of the Dutch Landrace. Although the farm is well run, the technical performance is not optimal. There were latent problems with mortality and with growth rates of the piglets. There are too many poor-growing piglets, without fully understanding the technical or veterinary reason. There is no clear pathology to be seen on the farm.
The farmer selected the poor-growing piglets for this weaning period. The piglets were weaned for two days at the start of the trial. There were three groups: the normal well-growing piglets, which served as a control group; the B group with 78 poor growers that are treated with 12.5 mg/kg/LW (Life Weight) IAA; and the X group with 52 poor growers that are not treated.
Blood samples for IGF-1 measuring were taken from each group at the beginning of the trial and at the end of the trial. Two pens (13 piglets) of the B and X groups were weighed at the beginning and at the end of the trial. The active ingredient IAA was mixed in dextrose. […] The B group received the treatment five days after the first IGF-1 measuring.

[3] = tested on: IGF-1; assay: IgF-1 level in athletes with intensive training taking IAA or placebo (Example 6); type: in vivo, human; details: group A
Method: (§1) Twenty athletes entered the study. Other medication was excluded from the research. The period of the treatment was 12 weeks. They were not allowed to take any other medication or food supplements. They continued their level of training. After 2 weeks, the training was intensified by 25%. At baseline, at the start, after 2 weeks, 4 weeks, 6 weeks, 8 weeks, 10 weeks and 12 weeks, IGF-1 and safety parameters (liver tests, hematology) were determined. The group was divided into two groups of ten athletes. Group A received IAA; group B got a placebo.
All samples from one subject were analyzed in the same run to avoid intra-assay variability. GH was assayed with a chemiluminescence kit (Nichols Institute Diagnostics, San Juan Capistrano, Calif., USA). Quantification of IGF-1 was performed using an immunoradiometric assay (IRMA) (DSL-5600 ACTIVE, DSL, Germany GmbH, Germany). Intra- and inter-assay variance was: 4.0% and 9.2% for GH; 3.0% and 1.5% for IGF-1.
The total work output of every subject was calculated with a two-way ANOVA for repeated measures and the hormone values were analyzed with the Wilcoxon test. In all cases, 1 p value of <0.05 was accepted as significant.
(§2) The following schedule was used for the supplements. 1 IAA capsule contained 10 mg IAA, 100 mg NaCl, 140 mg WPC 70. One Glutamine capsule contained 500 mg glutamine. The amino acids that were taken are as described in Table 1.

[4] = tested on: growing laying hens; assay: Weight and weight gain of growing laying hens treated with IAA (Example 8); type: in vivo; design: unit not given here
Method: Growing laying hens of 10 weeks old were selected in the flock to create four groups of ten hens: • Group GB: Ten normally growing hens, not treated • Group GNA: Ten normally growing hens, treated with 10 mg/kg/LW IAA (LW=live weight) • Group SB: Ten poorly growing hens, not treated • Group SNA: 10 poorly growing hens, treated with 10 mg/kg/LW IAA.
In this example, not only the poor-growing birds were treated, but also normally growing animals. The birds receive daily forced oral treatment with a capsule that contains IAA. The different groups are weighed every week. Treatment is continued at least until the hens start laying, to see if the period of onset of laying is influenced by the treatment.

[5] = tested on: athletes; assay: Performance and recovery of athletes (Example 6); type: in vivo, human; details: group that received IAA; 12 weeks intensive training; placebo performances decreased
Method: as §1, §2

In the case of indole acetic acid [IAA], the Staphylococcus infection [1] was “no piglets suffered from Staphylococcus infection anymore”, the “condition of the piglets” value [1] was “dramatically improved” and the survival [1] was “All twelve pigs were still alive”. The “appearance of piglets in group B versus group X” value ([2]; after one week) was “looking better”, the “weight of poor-growing animals” value ([2]; animal experiments, summary) was “increased to normal levels” and the “average extra weight gain of treated group over non-treated” value ([2]; pens that were weighed, period of 21 days) was ~0.5 kg. For the same substance, the “av. Weight gain” value ([2]; treated pens of group B, 21 days, acetic acid) was 7.02 kg and 6.08 kg, the “Weighing 1 average” value ([2]; treated pens of group B, beginning of the trial, average per piglet, acetic acid) was 6.62 kg and 6.77 kg and the “Weighing 1 Total” value ([2]; treated pens of group B, beginning of the trial, total per pen, acetic acid) was 86 (n = 13) kg and 88 (n = 13) kg. The “Weighing 2 average” value ([2]; treated pens of group B, end of the trial, average per piglet, acetic acid) was 13.64 kg and 12.85 kg, the “Weighing 2 Total” value ([2]; treated pens of group B, end of the trial, total per pen, acetic acid) was 150 (n = 11) kg and 167 (n = 13) kg and the “average extra growth of pen B 3 L(eft) over neighbors from pen X 4 L(eft)” value ([2]; treated vs non-treated pen) was 850 grams. The “increase of IgF-1 level” value ([3]; over a period of 8 weeks (so in the source), statistically significant) was “ca. 47.7%”, the “IgF-1 level, average test group” value ([3]; time point 0 (start), blood taken every 2 weeks over 12 weeks) was 27.9 nmol/L and the “IgF-1 level, average test group” value ([3]; time point 1) was 35.8 nmol/L. For the same substance, the “IgF-1 level, average test group” value ([3]; time point 2) was 38.9 nmol/L, the “IgF-1 level, average test group” value ([3]; time point 3) was 42.5 nmol/L and the “IgF-1 level, average test group” value ([3]; time point 4) was 41.7 nmol/L. For the same substance, the “IgF-1 level, average test group” value ([3]; time point 5) was 41.4 nmol/L, the “IgF-1 level, average test group” value ([3]; time point 6 (end of the study)) was 41.2 nmol/L and the weight ([4]; group GNA (normally growing hens, 10 mg/kg/LW IAA daily oral capsule), weekly weighing 1) was 740. It also gave a total weight gain ([4]; group GNA, untreated GB 407.5) of 482, a weight ([4]; group GNA, weekly weighing 2) of 883 and a weight ([4]; group GNA, weekly weighing 3) of 996. It also gave a weight ([4]; group GNA, weekly weighing 4) of 1095, a weight ([4]; group GNA, weekly weighing 5) of 1222 and a weight gain ([4]; group GNA, weighing 2 vs 1) of 143. For the same substance, the weight gain ([4]; group GNA, weighing 3 vs 2) was 113, the weight gain ([4]; group GNA, weighing 4 vs 3) was 99 and the weight gain ([4]; group GNA, weighing 5 vs 4) was 127. It also gave a weight ([4]; group SNA (poorly growing hens, 10 mg/kg/LW IAA daily oral capsule), weekly weighing 1) of 489.5, a total weight gain ([4]; group SNA, untreated SB 408.5) of 505.5 and a weight ([4]; group SNA, weekly weighing 2) of 598. The weight ([4]; group SNA, weekly weighing 3) was 718, the weight ([4]; group SNA, weekly weighing 4) was 885 and the weight ([4]; group SNA, weekly weighing 5) was 995. It also gave a weight gain ([4]; group SNA, weighing 2 vs 1) of 108.5, a weight gain ([4]; group SNA, weighing 3 vs 2) of 120 and a weight gain ([4]; group SNA, weighing 4 vs 3) of 167. The weight gain ([4]; group SNA, weighing 5 vs 4) was 110 and the “performance of athletes at the end” value [5] was “performed better”.

Reference: patent US10716778B2, “Use of compounds that are able to increase the serum IGF-1 level for the preparation of a therapeutical composition for treatment of various disease states associated with a reduced IGF-1 serum level in humans and animals” (VEIJLEN N.V., priority 2003, dated 2020)
